# Data from patent publication US20130109718A1, “1-CYCLOALKYL- OR 1-HETEROCYCLYL-HYDROXYIMINO-3-PHENYL-PROPANES” (Hoffmann-La Roche Inc., priority 2011, published 2013).
# pEC50: −log10 of the molar value.
# Target: T1, human GPBAR1 receptor (Homo sapiens, UniProt Q8TDU6)
# T1 construct: expressed in transfected cells
# T1 sequence (Q8TDU6 1-330): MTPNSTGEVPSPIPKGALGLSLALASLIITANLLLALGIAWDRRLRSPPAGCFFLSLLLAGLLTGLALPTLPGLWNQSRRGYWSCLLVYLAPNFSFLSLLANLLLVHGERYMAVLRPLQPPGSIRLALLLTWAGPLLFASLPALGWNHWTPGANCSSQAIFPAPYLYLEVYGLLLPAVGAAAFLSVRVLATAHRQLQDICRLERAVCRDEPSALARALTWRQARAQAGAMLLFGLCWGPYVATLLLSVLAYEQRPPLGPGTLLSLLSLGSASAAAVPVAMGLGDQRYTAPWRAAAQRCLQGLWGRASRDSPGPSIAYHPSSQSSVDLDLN
# Assay: functional cAMP assay in CHO-dhfr(minus) cells expressing human GPBAR1 receptors
# Format: cell-based
# Conditions: CHO-dhfr(minus) cells expressing human GPBAR1, 30 min at 30° C.
# Text: The cDNA of the human GPBAR1 receptor (Genbank: NM_170699 with the exception of a silent C:G mutation at position 339 from the start codon) was amplified by polymerase chain reaction (PCR) from human cDNA and inserted into pCineo (Promega) by standard methods (Current Protocols in Molecular Biology, Wiley Press, ed. Ausubel et al.). The final clone was verified by DNA sequence analysis. The plasmid was transfected into CHO cells deficient in dihydrofolate reductase activity (CHO-dhfr-) using Lipofectamine plus (Invitrogen). Clones were isolated in limited dilution conditions and identified by activities in the cAMP assay using lithocholic acid as agonist. A clonal cell line displaying the greatest activity in cAMP increases was selected and identified as giving consistently good responses for up to at least 20 passages.
# CHO-dhfr(minus) cells expressing human GPBAR1 receptors are seeded 17-24 hours prior to the experiment 50.000 cells per well in a black 96 well plate with flat clear bottom (Corning Costar #3904) in DMEM (Invitrogen No. 31331), 1×HT supplement, with 10% fetal calf serum and incubated at 5% CO2 and 37° C. in a humidified incubator. The growth medium was exchanged with Krebs Ringer Bicarbonate buffer with 1 mM IBMX and incubated at 30° C. for 30 min. Compounds were added to a final assay volume of 100 μl and incubated for 30 min at 30° C. The assay was stopped by the addition of 50 μl lysis reagent (Tris, NaCl, 1.5% Triton X100, 2.5% NP40, 10% NaN3) and 50 μl detection solutions (20 μM mAb Alexa700-cAMP 1:1, and 48 μM Ruthenium-2-AHA-cAMP) and shaken for 2 h at room temperature. The time-resolved energy transfer is measured by a TRF reader (Evotec Technologies GmbH, Hamburg Germany), equipped with a ND:YAG laser as excitation source. The plate is measured twice with the excitation at 355 nm and at the emission with a delay of 100 ns and a gate of 100 ns, total exposure time 10 s at 730 (bandwidth 30 nm) or 645 nm (bandwidth 75 nm), respectively. The measured signal at 730 nm has to be corrected for the ruthenium background, the direct excitation of Alexa and the buffer control. The FRET signal is calculated as follows: FRET=T730-Alexa730-P(T645-B645) with P=Ru730-B730/Ru645-B645, where T730 is the test well measured at 730 nM, T645 is the test well measured at 645 nm, B730 and B645 are the buffer controls at 730 nm and 645 nm, respectively. cAMP content is determined from the function of a standard curve spanning from 10 μM to 0.13 nM cAMP.
# EC50 values were determined using Activity Base analysis (ID Business Solution, Limited). The EC50 values for a wide range of bile acids generated from this assay were in agreement with the values published in the scientific literature. Specificity for GPBAR1 was tested in non-transfected CHO cells in the same assay as above.
row,Compound,pEC50
1,"Cc1ccccc1C(C/C(=N\O)[C@H]1CC[C@H](O)CC1)c1ccc(Br)cc1 (stereo partly drawn) [Example 13, (E)-3-(4-Bromophenyl)-1-(trans-4-hydroxycyclohexyl)-3-o-tolylpropan-1-one oxime]",5.70
2,"CS(=O)(=O)c1ccc(C(C/C(=N\O)C2CCOCC2)c2ccccc2)cc1 (stereo not drawn) [Example 10, (E)-3-(4-(Methylsulfonyl)phenyl)-3-phenyl-1-(tetrahydro-2H-pyran-4-yl)propan-1-one oxime]",6.10
3,"Cc1ccccc1C(C/C(=N\O)C1CCS(=O)(=O)CC1)c1ccc(Br)cc1 (stereo not drawn) [Example 12, 3-(4-Bromo-phenyl)-1-(1,1-dioxo-hexahydro-thiopyran-4-yl)-3-o-tolyl-propan-1-one oxime]",5.01
4,"Cc1ccccc1C(C/C(=N\O)C1CCC(=O)CC1)c1ccc(Br)cc1 (stereo not drawn) [Example 14, (E)-4-(3-(4-bromophenyl)-1-(hydroxyimino)-3-o-tolylpropyl)cyclohexanone]",6.22
5,"Cc1ccccc1[C@H](C/C(=N/O)C1CCC(=O)N(C)C1)c1ccc(S(C)(=O)=O)cc1 (stereo partly drawn) [Example 2, 5-((R,Z)-1-(hydroxyimino)-3-(4-(methylsulfonyl)phenyl)-3-o-tolylpropyl)-1-methylpiperidin-2-one]",5.06
6,"CC(=O)N1CCC(/C(CC(c2ccc(Br)cc2)c2ccccc2C)=N/O)CC1 (stereo not drawn) [Example 8, (E)-1-(4-(3-(4-Bromophenyl)-1-(hydroxyimino)-3-o-tolylpropyl)piperidin-1-yl)ethanone]",5.08
7,"Cc1ccccc1C(C/C(=N\O)C1CCSCC1)c1ccc(Br)cc1 (stereo not drawn) [Example 11, (E)-3-(4-Bromophenyl)-1-(tetrahydro-2H-thiopyran-4-yl)-3-o-tolylpropan-1-one oxime]",5.00
8,"Cc1ccccc1C(C/C(=N/O)C1CCC(O)CC1)c1ccc(S(C)(=O)=O)cc1 (stereo not drawn) [Example 16, (Z)-1-(4-hydroxycyclohexyl)-3-(4-(methylsulfonyl)phenyl)-3-o-tolylpropan-1-one oxime]",5.11
9,"Cc1ccccc1C(C/C(=N\O)C1CCC(O)CC1)c1ccc(S(C)(=O)=O)cc1 (stereo not drawn) [Example 15, (E)-1-(4-Hydroxycyclohexyl)-3-(4-(methylsulfonyl)phenyl)-3-o-tolylpropan-1-one oxime]",6.17
10,"Cc1ccccc1C(C/C(=N\O)C1CC(O)C1)c1ccc(Br)cc1 (stereo not drawn) [Example 18, (E)-3-(4-Bromophenyl)-1-(3-hydroxycyclobutyl)-3-o-tolylpropan-1-one oxime]",5.41
11,"Cc1ccccc1C(C/C(=N\O)[C@H]1CC[C@](C)(O)CC1)c1ccc(S(C)(=O)=O)cc1 (stereo partly drawn) [Example 17, (E)-1-((1r,4r)-4-Hydroxy-4-methylcyclohexyl)-3-(4-(methylsulfonyl)phenyl)-3-o-tolylpropan-1-one oxime]",5.01

# The next molecules have a higher pEC50 than those just listed; values first:
row,pEC50,Compound
1,6.25,"Cc1ccccc1[C@H](C/C(=N\O)C1CCC(=O)N(C)C1)c1ccc(-c2ccc(C(=O)O)cc2)cc1 (stereo partly drawn) [Example 7, 4′-((1R,E)-3-(Hydroxyimino)-3-(1-methyl-6-oxopiperidin-3-yl)-1-o-tolylpropyl)biphenyl-4-carboxylic acid]"
2,6.84,"Cc1ccccc1[C@H](C/C(=N\O)C1CCC(=O)N(C)C1)c1ccc(S(C)(=O)=O)cc1 (single isomer, unassigned) [Example 3]"
3,6.93,"Cc1ccccc1[C@H](C/C(=N\O)C1CCC(=O)N(C)C1)c1ccc(S(C)(=O)=O)cc1 (mixture of isomers) [Example 1, 5-((R,E)-1-(Hydroxyimino)-3-(4-(methylsulfonyl)phenyl)-3-o-tolylpropyl)-1-methylpiperidin-2-one]"
4,6.93,"Cc1ccccc1C(C/C(=N\O)C1CCOCC1)c1ccc(Br)cc1 (stereo not drawn) [Example 9, (E)-3-(4-Bromophenyl)-1-(tetrahydro-2H-pyran-4-yl)-3-o-tolylpropan-1-one oxime]"
5,7.29,"Cc1ccccc1[C@H](C/C(=N\O)C1CCC(=O)N(C)C1)c1ccccc1 (stereo partly drawn) [Example 6, 5-((R,E)-1-(Hydroxyimino)-3-phenyl-3-o-tolylpropyl)-1-methylpiperidin-2-one]"
6,7.38,"Cc1ccccc1[C@H](C/C(=N\O)C1CCC(=O)N(C)C1)c1ccc(N2CCC(C(=O)O)CC2)cc1 (stereo partly drawn) [Example 5, Sodium 1-(4-((1R,E)-3-(hydroxyimino)-3-(1-methyl-6-oxopiperidin-3-yl)-1-o-tolylpropyl)phenyl)piperidine-4-carboxylate]"
7,7.54,"Cc1ccccc1[C@H](C/C(=N\O)C1CCC(=O)N(C)C1)c1ccc(S(C)(=O)=O)cc1 (single isomer, unassigned) [Example 4]"
